Data from patent US10562848B2, “Inhibitors of TNF superfamily costimulatory interactions and methods for uses of the same” (UNIVERSITY OF MIAMI, priority 2015, dated 2020).
Like-named read-outs stand apart in the source and are kept apart here.

Columns and labels:
OX40-OX40L = target: T1, OX40-OX40L (Homo sapiens, UniProt P23510+P43489); experiment: Cell-free ELISA-type OX40 binding inhibition assay; details: Table 2
T1 sequence (P43489 29-214 limits assumed): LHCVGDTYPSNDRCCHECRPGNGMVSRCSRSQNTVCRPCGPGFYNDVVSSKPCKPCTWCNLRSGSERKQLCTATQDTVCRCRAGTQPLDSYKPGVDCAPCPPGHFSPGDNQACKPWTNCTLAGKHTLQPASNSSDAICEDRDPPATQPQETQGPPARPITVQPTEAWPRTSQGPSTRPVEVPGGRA
T1 sequence (P23510 51-183 limits assumed): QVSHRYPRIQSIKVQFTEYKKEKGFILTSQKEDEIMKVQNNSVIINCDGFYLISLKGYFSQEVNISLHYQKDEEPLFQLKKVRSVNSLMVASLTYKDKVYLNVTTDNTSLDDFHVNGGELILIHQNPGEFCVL
Protocol: (§1) Typical concentrations used were as follows—receptors: 0.3 μg/mL for CD40, TNF-R1, and RANK; 0.6 μg/mL for BAFF-R, OX40, and 4-1BB; and 2 μg/mL for EGF-R-ligands: 0.02 μg/mL for CD40L, TNFα, and RANKL; 0.2 μg/ml for BAFF, OX40L, 4-1BBL; and 0.3 μg/mL for EGF. Assays were done in duplicate or triplicate per plate and repeated at least three times; the averaged data were normalized and used for data fitting and analysis. Binding data were fitted using the standard log inhibitor versus response model in GraphPad Prism to determine the corresponding IC50 values.

[1] = system: CD40L-induced MHC-II expression in human THP-1 cells; experiment: cells; details: for IC50: Homo sapiens, THP-1, 48 h, read-out: IC50, inhibition of CD40L-induced THP-1 activation
Protocol: As a further assessment, the ability of the compounds of the disclosure to inhibit the CD40L-induced activation of THP-1 cells, which can serve as surrogate dendritic cells, was evaluated using an assay as described previously (see Margolles-Clark et al, J Mol Med 87:1133-1143 (2009)).
THP-1 human myeloid cells obtained from American Type Culture Collection (ATCC; Manasses, Va.) were cultivated in RPMI media 1640 supplemented with 10% FBS, 100 U/mL penicillin, and streptomycin 100 μg/mL to a density of 1×10^6 cells/mL. Cells were centrifuged and cultured in the same medium without FBS for a period of 24 hours. Starved cells were placed in fresh medium without FBS and stimulated with 0.5 μg/mL of rhCD154 (MegaCD40L; Enzo Life Sciences), in the presence of various concentrations of test compounds. After 48 h, cells were labeled with biotin conjugated monoclonal anti-human CD40 antibody (clone LOB7/6) (LifeSpan BioSciences, Seattle, Wash.), detected with allophycocyanin-eFluor™ 780 streptavidin (eBioscience, San Diego, Calif.), and labeled with monoclonal anti-human HLA-DR antibody APC-Alexa Fluor® 750 (clone LN3) (eBioscience, San Diego, Calif.). All cultivations were carried out for 48 h at 37° C., 90% humidity, and 5% CO2. Stained THP-1 cells were analyzed using a BD LSR II Flow Cytometer (BD Biosciences, San Jose, Calif.). Cell surface markers were quantified in live cells only after gating out 4′,6-diamidino-2-phenylindole (DAPI) labeled cells. All experiments were repeated at least three times.
Data are average±SD in live (DAPI^−) cells from five independent experiments and were analyzed by […] one-way ANOVA followed by Dunnett's multiple comparison test, *p<0.05, **p<0.01, ****p<0.0001 vs. cells+huCD40L.

human CD40-CD40L = target: T2, human CD40-CD40L (Homo sapiens, UniProt P29965); experiment: Cell-free ELISA-type CD40-CD40L binding inhibition assay
T2 construct: purchased Enzo Life Sciences (San Diego, Calif.)
T2 sequence (P29965 116-261 limits assumed): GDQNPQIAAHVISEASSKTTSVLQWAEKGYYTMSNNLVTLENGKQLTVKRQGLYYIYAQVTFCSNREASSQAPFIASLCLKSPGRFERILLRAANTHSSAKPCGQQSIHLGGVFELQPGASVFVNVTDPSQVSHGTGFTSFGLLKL
Protocol: Compounds according to the disclosure were assessed for their ability to inhibit the binding of tagged ligands to plate-bound receptors using ELISA-type 96-well plate-based cell-free assays as described in the literature (see Margolles-Clark et al, J Mol Med 87:1133-1143 (2009); Margolles-Clark et al., Chem Biol Drug Des 76:305-313 (2010); Song et al., Br J Pharmacol 171:4955-4969 (2014); and Ganesan et al., Biochem Pharmacol 81:810-818 (2011)).
Recombinant receptors (hCD40:Fc, TNF-R1:Fc) and tagged ligands (hCD154, MegaCD40L, and TNF-α), were obtained from Enzo Life Sciences (San Diego, Calif.). Microtiter plates (Nunc F Maxisorp; 96-well) were coated overnight at 4° C. with 100 μL/well of Fc chimeric receptors diluted in PBS 7.2. This was followed by blocking with 200 μL/well of blocking solution (PBS 7.2, 0.05% Tween-20, 1% BSA) for 1 hour at room temperature. […] Either anti-FLAG-HRP or streptavidin-HRP conjugate was used to detect the bound FLAG-tagged or biotinylated ligand, respectively. Plates were washed three times before the addition of 120 μL/well of HRP substrate TMB (3, 3′, 5, 5′-tetramethylbenzidine) and kept in the dark for 15-30 min. The reaction was stopped using 30 μL 1M H2SO4, and the absorbance was read at 450 nm. Stock solutions of compounds at 10 mM in DMSO were used.
as §1

[2] = system: CD40L-induced NF-κB activation in CD40 sensor cells (HEK Blue); experiment: Inhibition of CD40L-induced NF-κB activation in CD40 sensor cells (HEK-Blue); assay type: cell-based, human; details: for IC50: Homo sapiens, CD40L 20 ng/mL, 18 h
Text: Activities of the compounds of the disclosure were confirmed in cell-based assays. As a first example, TNF-R1 and CD40 expressing sensor cells (HEK-Blue; InvivoGen, San Diego, Calif.) were used as described in the literature (see Song et al., Br J Pharmacol 171:4955-4969 (2014) and Cechin et al., Steroids 85:36-43 (2014)).
Cells were maintained in DMEM at 80% confluence for each experiment. Cells were trypsinized and re-suspended in the same medium with 1% FBS and seeded on 96-well microtiter plates at a density of 1×10^5 cells/well in the absence and presence of various concentrations of compounds diluted in the same media. For ligand mediated stimulation, final concentrations of recombinant human TNFα (2 ng/mL) and CD40L (20 ng/mL) were maintained in the wells for this purpose. After 18-hour incubation at 37° C., 20 μL supernatant of each well were taken and added to another 96-well microtiter plate containing 180 μL/well of QUANTI-Blue (InvivoGen, CA). The level of SEAP was determined after 30-minute incubation at 37° C. by reading at 625 nm using a spectrophotometer. […] Data are average±SD (normalized to CD40L-activated cells alone) for n=4 independent experiments with duplicates for each condition.

[3] = IC50, inhibition of the CD40-CD40L interaction, cell-free binding, n=3 independent experiments

Row | Structure (SMILES) | IC50 (OX40-OX40L) | IC50 [1] | inhibition of CD40L-induced MHC-II expression in THP-1 cells (in words) [1] | IC50 (human CD40-CD40L; [3]) | IC50 (human CD40-CD40L; IC50 CD40, Table 2) | inhibition of human CD40-CD40L binding (in words) (human CD40-CD40L; cell-free binding) | inhibition of CD40L-induced NF-κB activation (in words) [2] | IC50 [2] | IC50 (human CD40-CD40L; Table 2, read-out: IC50 CD40) | IC50 (human CD40-CD40L; cell-free binding, n=3 independent experiments, read-out: IC50, inhibition of the CD40-CD40L interaction)
1 | O=C(Nc1ccc(-c2ccc(C(=O)Nc3cccc4cccc(S(=O)(=O)O)c34)cc2)cc1)c1ccc([N+](=O)[O-])cc1 [Compound 21041, 8-[(4′-[4-nitrobenzamido]biphenyl-4-yl-carbonyl)amino]naphthalene-1-sulfonic acid] | 605 µM | ~10 µM | concentration-dependent inhibition | 0.31 µM | 0.3 µM | concentration-dependent inhibition | concentration-dependent inhibition | 10 µM |  | 
2 | COC(=O)c1ccc(C(=O)Nc2ccc(-c3ccc(C(=O)Nc4cccc5cccc(S(=O)(=O)O)c45)cc3)cc2)cc1 [Compound 21045] | 135 µM |  | concentration-dependent inhibition |  |  | concentration-dependent inhibition | concentration-dependent inhibition | 17 µM | 0.1 µM | 0.14 µM
3 | O=C(Nc1ccc(-c2ccc(C(=O)Nc3ccc(C(=O)O)c4ccccc34)cc2)cc1)c1ccc([N+](=O)[O-])cc1 [Compound 25441] | 2.7 µM | ~10 µM | concentration-dependent inhibition | 0.36 µM |  | concentration-dependent inhibition | concentration-dependent inhibition | 9 µM | 0.4 µM | 
